# Reference: patent publication US11466029B2, “Compounds useful to treat influenza virus infections” (Nanjing Zhengxiang Pharmaceuticals Co., Ltd., priority 2019, dated 2022)
# Tested on: Oseltamivir-resistant A/Weiss/43 (H1N1)
# Test: microbe, parasite or virus in culture
# Assay type: cell-based
# Conditions: Influenza A virus, H1N1, MDCK, 120 h
row,SMILES,EC50 [nM]
1,"O=C1c2c(O)c(=O)ccn2N([C@@H]2c3ccccc3SCc3c2ccc(F)c3F)[C@@H]2COCCN12 [Baloxavir acid, reference compound]",1
2,"O=C1c2c(O)c(=O)ccn2N([C@@H]2c3ccccc3[Se]Cc3c2ccc(F)c3F)[C@@H]2COCCN12 [Compound B-1, (R)-12-((S)-7,8-Difluoro-6,11-Dihydrodibenzo[b,e]Selenepin-11-yl)-7-Hydroxy-3,4,12,12a-Tetrahydro-1H-[1,4]Oxazino[3,4-c]Pyrido[2,1-f][1,2,4]Triazine-6,8-Dione]",1.1
3,"CP(C)(=O)c1cn2c(c(O)c1=O)C(=O)N1CCOC[C@H]1N2[C@@H]1c2ccccc2SCc2c1ccc(F)c2F [Compound E-1c, (R)-12-((S)-7,8-difluoro-6,11-dihydrodibenzo[b,e]thiepin-11-yl)-9-(dimethylphosphoryl)-7-hydroxy-3,4,12,12a-tetrahydro-1H-[1,4]oxazino[3,4-c]pyrido[2,1-f][1,2,4]triazine-6,8-dione]",254
4,"CCP(=O)(CC)c1cn2c(c(O)c1=O)C(=O)N1CCOC[C@H]1N2[C@@H]1c2ccccc2SCc2c1ccc(F)c2F [Compound F-1, (R)-9-(Diethylphosphoryl)-12-((S)-7,8-Difluoro-6,11-Dihydrodibenzo[b,e]-Thiepin-11-yl)-7-Hydroxy-3,4,12,12a-Tetrahydro-1H-[1,4]Oxazino[3,4-c]Pyrido[2,1-f][1,2,4]Triazine-6,8-Dione]",881
5,"CCC(CC)O[C@@H]1C=C(C(=O)O)C[C@H](N)[C@H]1NC(C)=O [Oseltamivir acid, reference compound]",> 100000
